One assay deals with GSK3β (Homo sapiens, UniProt P49841). The assay is described as follows: GSK3β kinase assay (Caliper LabChip3000, fluoresceinated peptide substrate). The class given is biochemical. As to the method:
(§1) The kinase assay was performed in V-bottom 384-well plates. […] The reaction was incubated at room temperature for 20 hours and terminated by adding 45 μl of 35 mM EDTA to each sample. The reaction mixture was analyzed on the Caliper LabChip3000 (Caliper, Hopkinton, Mass.) by electrophoretic separation of the unphosphorylated substrate and phosphorylated product. […] Compounds were dissolved at 10 mM in dimethylsulfoxide (DMSO) and evaluated at eleven concentrations. IC50 values were derived by non-linear regression analysis.

For another assay, the system named is pTau. The assay can be described thus: pTau assay (method not described). The class given is cell-based. The following applies: for pIC50: read-out: pTau; for IC50: read-out: pTau (nM).
For the next assay, the target named is GSK3α (Homo sapiens, UniProt P49840). The assay is described as follows: biochemical. On the procedure:
as §1

[1] abbreviates: first value of the cell; 250 pM enzyme, 20 uM ATP, 20 hours at room temperature; read-out: GSK3β/α (nM): GSK3β IC50.
Setting [2] is: second value of the cell; 250 pM enzyme, 20 uM ATP, 20 hours at room temperature; read-out: GSK3β/α (nM): GSK3α IC50.

This is an account of results in patent publication US9809573B2, “Substituted pyridine derivatives useful as GSK-3 inhibitors” (priority 2013, dated 2017).

SMILES strings stand for the structures. pIC50: −log10 of the molar value. Where two headings read alike, the source gives them in different places.

Chain of GSK3β (P49841 whole entry, species assumed): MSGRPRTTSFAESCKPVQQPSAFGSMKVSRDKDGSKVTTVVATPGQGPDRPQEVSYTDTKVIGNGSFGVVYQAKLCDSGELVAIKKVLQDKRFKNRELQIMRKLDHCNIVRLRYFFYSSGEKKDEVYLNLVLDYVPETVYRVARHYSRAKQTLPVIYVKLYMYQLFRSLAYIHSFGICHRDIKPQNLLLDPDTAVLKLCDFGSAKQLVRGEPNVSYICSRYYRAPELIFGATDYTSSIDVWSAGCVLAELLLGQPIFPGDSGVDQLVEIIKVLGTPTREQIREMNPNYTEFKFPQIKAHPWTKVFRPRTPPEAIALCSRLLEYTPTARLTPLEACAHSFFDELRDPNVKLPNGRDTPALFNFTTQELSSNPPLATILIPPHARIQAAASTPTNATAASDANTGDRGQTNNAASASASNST
Chain of GSK3α (P49840 whole entry, species assumed): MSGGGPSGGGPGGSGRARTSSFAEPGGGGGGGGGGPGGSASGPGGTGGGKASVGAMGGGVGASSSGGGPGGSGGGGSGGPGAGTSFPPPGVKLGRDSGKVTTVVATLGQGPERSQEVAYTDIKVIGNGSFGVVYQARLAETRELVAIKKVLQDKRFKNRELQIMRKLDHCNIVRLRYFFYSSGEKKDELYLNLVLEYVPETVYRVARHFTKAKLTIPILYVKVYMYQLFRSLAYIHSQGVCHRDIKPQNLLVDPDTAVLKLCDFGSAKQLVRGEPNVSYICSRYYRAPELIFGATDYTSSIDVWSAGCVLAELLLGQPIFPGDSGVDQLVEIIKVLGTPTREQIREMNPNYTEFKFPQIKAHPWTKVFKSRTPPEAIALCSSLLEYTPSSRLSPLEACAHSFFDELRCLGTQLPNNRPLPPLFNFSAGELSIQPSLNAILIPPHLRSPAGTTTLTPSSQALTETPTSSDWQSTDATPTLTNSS

Consider `CC1(C)CC1C(=O)Nc1cc(C(=O)Nc2cnccc2-c2ccccc2)ccn1` (stereo not drawn) [Example 97, 2-(2,2-Dimethylcyclopropanecarboxamido)-N-(4-phenylpyridin-3-yl)isonicotinamide], for which the IC50 on GSK3β (setting [1]) turned out to be 1.1 nM; on GSK3α (setting [2]), 8.5 nM. In the assay on pTau, the pIC50 is 6.06.
For `CC(C)C(=O)Nc1cc(C(=O)Nc2cnccc2-c2ccccc2)ccn1` [Example 185, 2-Isobutyramido-N-(4-phenylpyridin-3-yl)isonicotinamide], the figures for the pIC50 against GSK3β and in the assay with pTau were 8.85 and 6.74, respectively. Besides, the IC50 at GSK3α (setting [2]) turned out to be 4.2 nM.
In the case of `O=C(Nc1cncc(-c2cccc(F)c2F)c1)c1ccnc(NC(=O)C2CCC(F)(F)C2)c1` (stereo not drawn) [Example 235, 2-(3,3-difluorocyclopentanecarboxamido)-N-(5-(2,3-difluorophenyl)pyridin-3-yl)isonicotinamide], the pIC50 is 8.85 on GSK3β and 9.22 against GSK3α. Also, the IC50 in the assay with pTau turned out to be 130 nM.
In the case of `CC(C)C(=O)Nc1cc(C(=O)Nc2cncc(-c3ccccc3Cl)c2)ccn1` [Example 195, N-(5-(2-chlorophenyl)pyridin-3-yl)-2-isobutyramidoisonicotinamide], the IC50 is 10 nM at GSK3β (setting [1]) and 1.5 nM on GSK3α (setting [2]). Also, the pIC50 in the assay on pTau was 6.97.
For `CC(C)C(=O)Nc1cc(C(=O)Nc2cncc(-c3cccc(F)c3F)c2)ccn1` [Example 194, N-(5-(2,3-difluorophenyl)pyridin-3-yl)-2-isobutyramidoisonicotinamide] the same measures were 3.8 nM, 1.4 nM and 6.85.
In the case of `CC(C)(C)C(=O)Nc1cc(C(=O)Nc2cnccc2N2CCC(F)(F)CC2)ccn1` [Example 208, N-(4-(4,4-difluoropiperidin-1-yl)pyridin-3-yl)-2-pivalamidoisonicotinamide], the values for the pIC50 on GSK3β and in the assay on pTau were 8.38 and 6.92, respectively. Further, the IC50 at GSK3α (setting [2]) is 3.1 nM.
Consider `O=C(Nc1cnccc1-c1cc(Cl)ccc1F)c1ccnc(NC(=O)C2CC2)c1` [Example 86, 2-(Cyclopropanecarboxamido)-N-(4-(2-fluoro-5-chloro-phenyl)pyridin-3-yl)isonicotinamide], for which the IC50 on GSK3β (setting [1]) was 54 nM; on GSK3α (setting [2]), 26 nM. Besides, in the assay with pTau, the pIC50 was 6.20.
Consider `COc1ccnc(-c2ccccc2)c1NC(=O)c1ccnc(NC(=O)C2CC2)c1` [Example 62, 2-(Cyclopropanecarboxamido)-N-(4-methoxy-2-phenylpyridin-3-yl)isonicotinamide], for which the IC50 at GSK3β (setting [1]) amounted to 2.6 nM; on GSK3α (setting [2]), 4.8 nM. Also, the pIC50 in the assay with pTau is 6.51.
In the same order, the values of `O=C(Nc1cncnc1N1CCC(F)(F)CC1)c1ccnc(NC(=O)C2CC2)c1` [Example 179, 2-(Cyclopropanecarboxamido)-N-(4-(4,4-difluoropiperidin-1-yl)pyrimidin-5-yl)isonicotinamide] are 160 nM, 40 nM and 5.52.
For `O=C(Nc1cnccc1-c1ccc(Cl)cc1)c1ccnc(NC(=O)C2CC(F)C2)c1` (single isomer, unassigned) [Example 223, N-(4-(4-chlorophenyl)pyridin-3-yl)-2-((1,3-cis)-3-fluorocyclobutanecarboxamido)isonicotinamide], the IC50 on GSK3β (read-out: GSK3β/α (nM): GSK3β IC50; first value of the cell; 250 pM enzyme, 20 uM ATP, 20 hours at room temperature) was found to be 6.9 nM; on GSK3α (read-out: GSK3β/α (nM): GSK3α IC50; second value of the cell; 250 pM enzyme, 20 uM ATP, 20 hours at room temperature) it was 3.1 nM. In addition, in the assay with pTau, the pIC50 was 6.82.
On to `O=C(Nc1ccc(-c2ccccc2)nc1)c1ccnc(NC(=O)C2CC2)c1` [Example 10, 2-(Cyclopropanecarboxamido)-N-(6-phenylpyridin-3-yl)isonicotinamide], for which the results for the IC50 at GSK3β (setting [1]) and on GSK3α (setting [2]) were 16 nM and 64 nM, respectively. The pIC50 with pTau is 5.74.
Turning to `C[C@@H]1CN(c2ccncc2NC(=O)c2ccnc(NC(=O)C3CC3)c2)CCO1` (single isomer, unassigned) [Example 77], the pIC50 against GSK3β was 8.06; at GSK3α, 8.57. Moreover, the IC50 with pTau came to 220 nM.
`CCOc1cccc(-c2cncc(NC(=O)c3ccnc(NC(=O)C4CC4)c3)c2)c1Cl` [Example 158, N-(5-(2-chloro-3-ethoxyphenyl)pyridin-3-yl)-2-(cyclopropanecarboxamido)isonicotinamide]: the IC50 at GSK3β (setting [1]) is 7.7 nM; on GSK3α (setting [2]), 2.5 nM. Further, the pIC50 with pTau is 6.37.
For `COC(=O)c1cncc(NC(=O)c2ccnc(NC(=O)C3CC3)c2)c1` [Example 101, Methyl 5-(2-(cyclopropanecarboxamido)isonicotinamido)nicotinate] the same measures were 30 nM, 13 nM and 5.51.
For `O=C(Nc1c(N2CCOCC2)ccnc1F)c1ccnc(NC(=O)C2CC2)c1` [Example 88, 2-(Cyclopropanecarboxamido)-N-(2-fluoro-4-morpholinopyridin-3-yl)isonicotinamide] the same measures were 9.1 nM, 3.9 nM and 6.77.
For `O=C(Nc1nc2cnccc2s1)c1ccnc(NC(=O)C2CC2)c1` [Example 182, 2-(cyclopropanecarboxamido)-N-(thiazolo[4,5-c]pyridin-2-yl)isonicotinamide] the same measures were 1300 nM, 470 nM and ≤ 5.00.
With `O=C(Nc1cncc(-c2cc(F)ccc2F)c1)c1ccnc(NC(=O)C2CCC(F)(F)C2)c1` (stereo not drawn) [Example 236, 2-(3,3-difluorocyclopentanecarboxamido)-N-(5-(2,5-difluorophenyl)pyridin-3-yl)isonicotinamide], the IC50 is 4.3 nM on GSK3β (setting [1]) and 2.1 nM on GSK3α (setting [2]). For the same compound, the pIC50 with pTau is 6.74.
In the same order, the values of `O=C(Nc1cnccn1)c1ccnc(NC(=O)C2CC2)c1` [Example 170, 2-(Cyclopropanecarboxamido)-N-(pyrazin-2-yl)isonicotinamide] are 8.1 nM, 2.9 nM and 6.24.
For `N#Cc1ccc(-c2cncc(NC(=O)c3ccnc(NC(=O)C4CC4)c3)c2)cc1` [Example 115, N-(5-(4-cyanophenyl)pyridin-3-yl)-2-(cyclopropanecarboxamido)isonicotinamide] the same measures were 4.1 nM, 4.3 nM and 6.11.
In the case of `CC(C)C(=O)Nc1cc(C(=O)Nc2cncc(-c3ccccc3F)c2)ccn1` [Example 193, N-(5-(2-fluorophenyl)pyridin-3-yl)-2-isobutyramidoisonicotinamide], the pIC50 at GSK3β was 8.25; in the assay with pTau it was 7.07. Also, the IC50 at GSK3α (setting [2]) was 2.2 nM.
As for `O=C(Nc1cncc(-c2ccccc2)c1)c1ccnc(NC(=O)C2CCCC2)c1` [Example 232, 2-(cyclopentanecarboxamido)-N-(5-phenylpyridin-3-yl)isonicotinamide], the pIC50 was 8.92 against GSK3β and 6.48 in the assay with pTau. Also, the IC50 on GSK3α (setting [2]) was determined as 0.51 nM.
With `O=C(Nc1cncnc1)c1ccnc(NC(=O)C2CC2)c1` [Example 178, 2-(Cyclopropanecarboxamido)-N-(pyrimidin-5-yl)isonicotinamide], the figures for the IC50 at GSK3β (setting [1]) and at GSK3α (setting [2]) were 14 nM and 12 nM, respectively. Moreover, the pIC50 in the assay with pTau is 5.92.
Take `O=C(Nc1cncc(-c2ccccc2F)c1)c1ccnc(NC(=O)C2CCC(F)(F)C2)c1` (stereo not drawn) [Example 234, 2-(3,3-difluorocyclopentanecarboxamido)-N-(5-(2-fluorophenyl)pyridin-3-yl)isonicotinamide]: the pIC50 against GSK3β was 8.85; in the assay with pTau, 6.80. The IC50 on GSK3α (setting [2]) stood at 0.9 nM.
On to `NC(=O)c1cnc(NC(=O)c2ccnc(NC(=O)C3CC3)c2)s1` [Example 183, 2-(2-(cyclopropanecarboxamido)isonicotinamido)thiazole-5-carboxamide], for which the IC50 at GSK3β (setting [1]) is 530 nM; on GSK3α (setting [2]), 200 nM. Besides, the pIC50 in the assay with pTau is ≤ 5.00.
As for `O=C(Nc1cncc(Oc2ccccc2)c1)c1ccnc(NC(=O)C2CC2)c1` [Example 107, 2-(cyclopropanecarboxamido)-N-(5-phenoxypyridin-3-yl)isonicotinamide], the pIC50 on GSK3β is 7.72; with pTau, 5.48. For the same compound, the IC50 at GSK3α (setting [2]) is 9.1 nM.
Take `O=C(Nc1cnccc1I)c1ccnc(NC(=O)C2CC2)c1` [Example 19, 2-(Cyclopropanecarboxamido)-N-(4-iodopyridin-3-yl)isonicotinamide]: the IC50 at GSK3β (setting [1]) came out at 1.4 nM; at GSK3α (setting [2]), 0.96 nM. Also, in the assay on pTau, the pIC50 was 7.46.
For the compound `O=C(Nc1cnccc1-c1ccccc1)c1ccnc(NC(=O)C2CCC2)c1` [Example 212, 2-(Cyclobutanecarboxamido)-N-(4-phenylpyridin-3-yl)isonicotinamide], the pIC50 is 8.37 on GSK3β and 8.36 against GSK3α. In addition, the IC50 with pTau stood at 96 nM.
Consider `CC(O)c1ccncc1NC(=O)c1ccnc(NC(=O)C2CC2)c1` (stereo not drawn) [Example 17, 2-(Cyclopropanecarboxamido)-N-(4-(1-hydroxyethyl)pyridin-3-yl)isonicotinamide], for which the pIC50 at GSK3β was 9.60; in the assay on pTau it was 7.46. Also, the IC50 at GSK3α (setting [2]) was found to be 1.4 nM.
Regarding `CN(C)Cc1ccccc1-c1cncc(NC(=O)c2ccnc(NC(=O)C3CC3)c2)c1` [Example 145, 2-(cyclopropanecarboxamido)-N-(5-(2-((dimethylamino)methyl)phenyl)pyridin-3-yl)isonicotinamide], the IC50 at GSK3β (setting [1]) turned out to be 780 nM; on GSK3α (setting [2]) it was 170 nM. In addition, the pIC50 in the assay with pTau is 5.85.
